Results published in paper PMC3608651, “A Broad Profile of Co-Dominant Epitopes Shapes the Peripheral Mycobacterium tuberculosis Specific CD8+ T-Cell Immune Response in South African Patients with Active Tuberculosis” (PLoS ONE, 2013).
Like-named read-outs stand apart in the source and are kept apart here.

What was measured:
Type in all cases: binding
HLA-C*07:01 [1] = target: T1, HLA-C*07:01 (Homo sapiens, UniProt P10321, K90N/S123Y); conditions: duplicated experiments, positive binder >40%
HLA-B*58:01 [2] = target: T2, HLA-B*58:01 (Homo sapiens, UniProt P01889, A329T/C349S/D201E/D98Y/E176V/E187L/E204Q/E69T/G107R/I218V/I90N/K202T/L105A/L119I/N104I/N87E/Q89R/Q94S/R106L/R155S/R180L/R86G/S101N/S121R/S35A/S48A/T118I/V127L/V306I/V36M/Y140S/Y91M); conditions: duplicated experiments, positive binder >40%
HLA-A*68:01 [3] = target: T3, HLA-A*68:01 (Homo sapiens, UniProt P04439, A269V/D185E/E176V/E277Q/E87N/F33Y/G231S/I121M/I166T/I218V/L180W/L300P/L318F/N151K/P208A/P217A/Q86R/R169H/T345S); conditions: duplicated experiments, positive binder >40%
HLA-C*07:01 [4] = target: T1, HLA-C*07:01; test: off-rate assay (t1/2); conditions: time points 0-8 h
HLA-C*07:01 [5] = target: T1, HLA-C*07:01; test: affinity assay (ED50)
HLA-A*24:02 [6] = target: T4, HLA-A*24:02 (Homo sapiens, UniProt P04439, D101N/D140Y/D185E/E176V/E190D/F33S/G103R/G107R/I119L/I121M/I306V/K335N/L105A/L180Q/L300P/N151K/N90K/Q86E/Q94H/R106L/R138H/R89G/T104I/T345S/V100E/W191G/Y123F); conditions: duplicated experiments, positive binder >40%
HLA-A*30:02 [7] = target: T5, HLA-A*30:02 (Homo sapiens, UniProt P04439, D101N/D140H/D185E/E176R/F33S/G80R/H175R/K168Q/Q94H/R138E/R41S/V100E); conditions: duplicated experiments, positive binder >40%
HLA-B*07:02 = HLA-B*07:02 (Homo sapiens, UniProt P01889); conditions: percent relative the binding of positive control peptide […]; duplicated experiments; positive binder >40%
HLA-A*30:02 [8] = target: T5, HLA-A*30:02; conditions: time points 0-8 h
HLA-A*02:01 [9] = target: T6, HLA-A*02:01 (Homo sapiens, UniProt P04439, D140Y/D185E/D98H/E176V/E277Q/G131W/G231S/I119V/I121R/I166T/I218V/L300P/L318F/N151K/N90K/P208A/P217A/Q86G/Q94H/R138H/R169H/T345S)
HLA-A*30:02 [10] = target: T5, HLA-A*30:02
HLA-A*30:01 = HLA-A*30:01 (Homo sapiens, UniProt P04439, D140H/D185E/E176W/F33S/G80R/H175R/K168Q/R138E/R41S); conditions: duplicated experiments, positive binder >40%
HLA-A*02:01 [11] = target: T6, HLA-A*02:01; conditions: […]; peptide quantity for 50% binding saturation
HLA-A*24:02 [12] = target: T4, HLA-A*24:02; conditions: time points 0-8 h
HLA-A*02:01 [13] = target: T6, HLA-A*02:01; conditions: time points 0-8 h; time when 50% of peptide has dissociated
HLA-B*58:01 [14] = target: T2, HLA-B*58:01
HLA-A*24:02 [15] = target: T4, HLA-A*24:02
HLA-A*68:01 [16] = target: T3, HLA-A*68:01
HLA-B*58:01 [17] = target: T2, HLA-B*58:01; conditions: time points 0-8 h
HLA-A*68:01 [18] = target: T3, HLA-A*68:01; conditions: time points 0-8 h
[19] = percent relative the binding of positive control peptide […]
[20] = percent relative the binding of positive control peptide […], plate-bound monomer 0.5 µg/ml, duplicated experiments, positive binder >40%
[21] = peptide titrated 10−4 to 10−9 M

Row | Substance | Bind C*07:01 (HLA-C*07:01 [1]; [19]) [%] | Bind B*58:01 (HLA-B*58:01 [2]; [19]) [%] | Bind A*68:01 (HLA-A*68:01 [3]; [19]) [%] | O-rate C*07:01 (t1/2) (HLA-C*07:01 [4]) [min] | Aff C*07:01 (ED50) (HLA-C*07:01 [5]) | Bind A*24:02 (HLA-A*24:02 [6]; [19]) [%] | Bind A*30:02 (HLA-A*30:02 [7]; [19]) [%] | Bind B*07:02 (HLA-B*07:02) [%] | O-rate A*30:02 (t1/2) (HLA-A*30:02 [8]) [min] | Bind A*02:01 (HLA-A*02:01 [9]; [20]) [%] | Aff A*30:02 (ED50) (HLA-A*30:02 [10]) | Bind A*30:01 (HLA-A*30:01; [19]) [%] | O-rate A*24:02 (t1/2) (HLA-A*24:02 [12]) [min] | Aff B*58:01 (ED50) (HLA-B*58:01 [14]) | Aff A*24:02 (ED50) (HLA-A*24:02 [15]) | also measured
1 | AMEDLVRAY [Rv0288_61–69] | 46 | 14 | 0 | 6 | 5e-06 M | – | – | – | – | – | – | – | – | – | – | –
2 | ANNTRLWVY | 113 | 19 | 0 | 42 | 5e-09 M | 32 | 195 | 9 | 114 | 5 | 2e-08 M | 19 | – | – | – | –
3 | IMYNYPTML [Rv0288_4–12m1] | 5 | 37 | – | – | – | 43 | 15 | 7 | – | 88 | – | 28 | 30 | 0.0003 M | 8e-07 M | Aff A*02:01 (ED50) (HLA-A*02:01 [11]): 4e-07 M; O-rate A*02:01 (t1/2) (HLA-A*02:01 [13]): 240 min
4 | LAAAWGGSG [Rv3875_39-47] | – | – | – | 60 | – | – | – | 4 | 126 | – | – | – | – | – | – | Bind A*24:02 (HLA-A*24:02 [6]; percent relative the binding of positive control peptide RYLKDQQLL): 4%; Bind C*07:01 (HLA-C*07:01 [1]; percent relative the binding of positive control peptide KYFDEHYEY): 120%; Bind B*58:01 (HLA-B*58:01 [2]; percent relative the binding of positive control peptide IAMESIVIW): 7%; Bind A*30:02 (HLA-A*30:02 [7]; percent relative the binding of positive control peptide KIQNFRVYY): 114%; Bind A*68:01 (HLA-A*68:01 [3]; percent relative the binding of positive control peptide KTGGPIYKR): 10%; Bind A*02:01 (HLA-A*02:01 [9]; percent relative the binding of positive control peptide FLPSDFFPSV, plate-bound monomer 0.5 µg/ml, duplicated experiments, positive binder >40%): 8%; Aff C*07:01 (ED50) (HLA-C*07:01 [5]; [21]): 4e-08 M; Aff A*30:02 (ED50) (HLA-A*30:02 [10]; [21]): 7e-09 M; Bind A*30:01 (HLA-A*30:01; percent relative the binding of positive control peptide KTKDIVNGL): 14%
5 | LAAYHPQQF | 84 | 13 | 37 | 24 | 1E -07 M | 52 | 66 | 74 | 66 | 39 | 3e-07 M | 0 | – | – | – | –
6 | NNSPAVYLL | 70 | 0 | 28 | 36 | 2e-07 M | 49 | 0 | 0 | – | 16 | – | 0 | – | – | – | –
7 | QIMYNYPTM [Rv0288_3–11m1] | – | 9 | – | – | – | 40 | 23 | 5 | – | 51 | – | 12 | 30 | – | 2e-06 M | Aff A*02:01 (ED50) (HLA-A*02:01 [11]): 3e-06 M; O-rate A*02:01 (t1/2) (HLA-A*02:01 [13]): 42 min
8 | QT YKWETFL | 15 | 40 | 46 | – | – | 110 | 41 | 0 | 60 | 60 | 2E -08 M | 0 | 120 | 2E -08 M | 2e-08 M | Aff A*68:01 (ED50) (HLA-A*68:01 [16]): 2E -07 M; Aff A*02:01 (ED50) (HLA-A*02:01 [11]): 3E -07 M; O-rate A*02:01 (t1/2) (HLA-A*02:01 [13]): 156 min; O-rate B*58:01 (t1/2) (HLA-B*58:01 [17]): 90 min; O-rate A*68:01 (t1/2) (HLA-A*68:01 [18]): 42 min
9 | RAVKPT GSA | 82 | 72 | 10 | 84 | 2E -07 M | 0 | 18 | 84 | – | 19 | – | 4 | – | 5E -07 M | – | O-rate B*58:01 (t1/2) (HLA-B*58:01 [17]): 18 min
10 | SMAGSSAMI | 0 | 95 | 0 | – | – | 52 | 45 | 14 | 78 | – | 9e-08 M | 0 | 24 | 2E -07 M | 2E -07 M | O-rate B*58:01 (t1/2) (HLA-B*58:01 [17]): 96 min; Bind A*02:01 (HLA-A*02:01 [9]): 81
11 | VRAYHAMSS [Rv0288_66–74] | 79 | 10 | 29 | 12 | 1e-06 M | – | – | – | – | – | – | – | – | – | – | –
12 | YNYPAMLGH [Rv0288_6–14] | 48 | 0 | 30 | 18 | 7e-06 M | – | – | – | – | – | – | – | – | – | – | –
